Source: patent publication US8865182B2 (priority 2009, dated 2014)

Tests used:
Format in all cases: binding, human
[1] = test system: HLA-B7 supertype (B*0702, B*3501, B*5101, B*5301, B*5401)
[2] = test system: HLA-A24 supertype (A*2301, A*2402, A*2902, A*3002)
[3] = test system: HLA-A1 supertype (A*101, A*2601, A*2902, A*3002)

| Sequence | # Alleles Bound [1] | # Alleles Bound [2] | other results |
| --- | --- | --- | --- |
| VPASRYLTDM (Influenza Virus) [SEQ ID NO: 147] | 2 | – | – |
| MYQKCCTLF (Influenza Virus) [SEQ ID NO: 251] | – | 3 | – |
| LYNKMEFEPF (Influenza Virus) [SEQ ID NO: 297] | – | 2 | – |
| HMMIWHSNL (Influenza Virus) [SEQ ID NO: 129] | – | 3 | – |
| APPEQSRMQF (Influenza Virus) [SEQ ID NO: 305] | 1 | – | – |
| HYPKVYKTYF (Influenza Virus) [SEQ ID NO: 296] | – | 2 | – |
| GPATAQMAL (Influenza Virus) [SEQ ID NO: 257] | 2 | – | – |
| SPGMMMGMF [SEQ ID NO: 256] | 1 | – | – |
| SWPDGANIPF (Influenza Virus) [SEQ ID NO: 100] | – | 2 | – |
| EWLKTRPIL (Influenza Virus) [SEQ ID NO: 75] | – | 2 | – |
| GPVHFRNQV (Influenza Virus) [SEQ ID NO: 301] | 1 | – | – |
| LPRRSGAAGA [SEQ ID NO: 132] | 2 | – | – |
| IYRRFKYGL (Influenza Virus) [SEQ ID NO: 85] | – | 2 | – |
| LPFHNVHPL [SEQ ID NO: 67] | 5 | – | – |
| EYIMKGVYI (Influenza Virus) [SEQ ID NO: 192] | – | 2 | – |
| WMACHSAAF [SEQ ID NO: 131] | – | 2 | – |
| GTEKLTITY [SEQ ID NO: 268] | – | – | # Alleles Bound [3]: 1 |
| MFLAMITYI [SEQ ID NO: 245] | – | 2 | – |
| SPQLEGFSA (Influenza Virus) [SEQ ID NO: 196] | 2 | – | – |
| IFLARSALI (Influenza Virus) [SEQ ID NO: 130] | – | 2 | – |
| YVDGFEPNGY (Influenza Virus) [SEQ ID NO: 167] | – | – | # Alleles Bound [3]: 2 |
| ASQGTKRSY (Influenza Virus) [SEQ ID NO: 110] | – | – | # Alleles Bound [3]: 1 |
| IPKRNRSIL [SEQ ID NO: 259] | 1 | – | – |
| FYRYGFVANF (Influenza Virus) [SEQ ID NO: 248] | – | 2 | – |
| SYLIRALTL [SEQ ID NO: 244] | – | 2 | – |

| Sequence | # Alleles Bound [1] | # Alleles Bound [2] | other results |
| --- | --- | --- | --- |
| FFLTQGALL (Influenza Virus) [SEQ ID NO: 98] | – | 3 | – |
| VFVIREPFI (Influenza Virus) [SEQ ID NO: 97] | – | 2 | – |
| ITQFESLKLY (Influenza Virus) [SEQ ID NO: 153] | – | – | # Alleles Bound [3]: 1 |
| KFAAICTHL (Influenza Virus) [SEQ ID NO: 189] | – | 2 | – |
| LPACVYGLAV (Influenza Virus) [SEQ ID NO: 133] | 4 | – | – |
| GPALSINEL (Influenza Virus) [SEQ ID NO: 306] | 1 | – | – |
| MPAHGPAKSM (Influenza Virus) [SEQ ID NO: 258] | 4 | – | – |
| HIASMRRNY (Influenza Virus) [SEQ ID NO: 168] | – | – | # Alleles Bound [3]: 1 |
| FPSSSYRRPV (Influenza Virus) [SEQ ID NO: 260] | 4 | – | – |
| QWSQEPTMLY (Influenza Virus) [SEQ ID NO: 269] | – | – | # Alleles Bound [3]: 2 |
| CFMYSDFHF (Influenza Virus) [SEQ ID NO: 190] | – | 3 | – |
| FMQALQLLF (Influenza Virus) [SEQ ID NO: 159] | – | 3 | – |
| NPALRMKWM (Influenza Virus) [SEQ ID NO: 299] | 1 | – | – |
| KFEEIRWLI (Influenza Virus) [SEQ ID NO: 158] | – | 2 | – |
| LTIGECPKY (Influenza Virus) [SEQ ID NO: 62] | – | – | # Alleles Bound [3]: 3 |
| TFEFTSFFY [SEQ ID NO: 212] | – | – | # Alleles Bound [3]: 3 |
| NPRMFLAMI (Influenza Virus) [SEQ ID NO: 252] | 1 | – | – |
| MLASIDLKY [SEQ ID NO: 211] | – | – | # Alleles Bound [3]: 4 |
| LWILDRLFF (Influenza Virus) [SEQ ID NO: 84] | – | 3 | – |
| WSQDPTMLY (Influenza Virus) [SEQ ID NO: 270] | – | – | # Alleles Bound [3]: 4 |
| WWTSNSIIVF (Influenza Virus) [SEQ ID NO: 99] | – | 2 | – |
| FFENKSETW (Influenza Virus) [SEQ ID NO: 193] | – | 2 | – |
| STVHYPKVY (Influenza Virus) [SEQ ID NO: 265] | – | – | # Alleles Bound [3]: 2 |
| SYINRTGTF [SEQ ID NO: 247] | – | 3 | – |
| MLANIDLKY [SEQ ID NO: 210] | – | – | # Alleles Bound [3]: 3 |

| Sequence | # Alleles Bound [1] | # Alleles Bound [2] | other results |
| --- | --- | --- | --- |
| IVAITDWSGY (Influenza Virus) [SEQ ID NO: 88] | – | – | # Alleles Bound [3]: 1 |
| FPNEVGARIL (Influenza Virus) [SEQ ID NO: 302] | 5 | – | – |
| KSCLPACVY [SEQ ID NO: 113] | – | – | # Alleles Bound [3]: 2 |
| MYQKCCNLF (Influenza Virus) [SEQ ID NO: 250] | – | 2 | – |
| WMMAMKYPI [SEQ ID NO: 295] | – | 2 | – |
| IPAEMLASI (Influenza Virus) [SEQ ID NO: 255] | 4 | – | – |
| FYIQMCTEL [SEQ ID NO: 128] | – | 2 | – |
| YSHGTGTGY (Influenza Virus) [SEQ ID NO: 206] | – | – | # Alleles Bound [3]: 4 |
| LYASPQLEGF (Influenza Virus) [SEQ ID NO: 194] | – | 2 | – |
| RYTKTTYWW (Influenza Virus) [SEQ ID NO: 246] | – | 2 | – |
| LVSDGGPNLY (Influenza Virus) [SEQ ID NO: 213] | – | – | # Alleles Bound [3]: 3 |
| KMARLGKGY (Influenza Virus) [SEQ ID NO: 209] | – | – | # Alleles Bound [3]: 1 |
| APPKQSRMQF (Influenza Virus) [SEQ ID NO: 304] | 1 | – | – |
| APFSKDNSI (Influenza Virus) [SEQ ID NO: 102] | 1 | – | – |
| RVSKMGVDEY (Influenza Virus) [SEQ ID NO: 267] | – | – | # Alleles Bound [3]: 1 |
| GMIDGWYGY (Influenza Virus) [SEQ ID NO: 63] | – | – | # Alleles Bound [3]: 2 |
| SSLENFRAY (Influenza Virus) [SEQ ID NO: 166] | – | – | # Alleles Bound [3]: 1 |
| SWPDGANINF (Influenza Virus) [SEQ ID NO: 101] | – | 2 | – |
| RPWVSFNQNL (Influenza Virus) [SEQ ID NO: 105] | 1 | – | – |
| APSPYNSRF (Influenza Virus) [SEQ ID NO: 103] | 2 | – | – |
| VTRREVHIY [SEQ ID NO: 165] | – | – | # Alleles Bound [3]: 1 |
| SPYNSRFESV (Influenza Virus) [SEQ ID NO: 104] | 3 | – | – |
| YPKVYKTYF (Influenza Virus) [SEQ ID NO: 300] | 2 | – | – |
| RPCFWVELI [SEQ ID NO: 106] | 1 | – | – |
